Test results: patent US20260242330A1, “USE OF AN AMANTADINE MONONITRATE COMPOUND IN MANUFACTURE OF A MEDICAMENT FOR THE PREVENTION AND TREATMENT OF HYPERTENSION” (GUANGZHOU MAGPIE PHARMACEUTICALS CO., LTD., priority 2022, published 2026)

Tests used:
Assay type in all cases: in vivo, human
[1] = test system: blood pressure in subjects with a DP≥90 mmHg; assay: Effect of MN-08 on blood pressure in subjects with a DP≥90 mmHg; settings: single or multiple administration as in Example 2
From the text: From this, it can be seen that making diastolic pressure drop more than systolic pressure drop is the characteristic of MN-08.

[2] = test system: blood pressure of subjects; assay: Effect of multiple administrations of MN-08 on blood pressure of subjects (7 days); settings: for DP / SP: Subject 14; for DP: baseline 84 mmHg; for SP: baseline 122 mmHg
From the text: (§1) All subjects in the following embodiments have signed informed consent forms, which comply with medical ethics regulations. According to the relevant provisions of Chinese Guidelines for the Prevention and Treatment of Hypertension (2018 Revision), the values measured for hypertension are the average blood pressure measured three times on a different day without the use of antihypertensive drugs. Therefore, in this embodiment, the baseline blood pressure of the subjects before administration is set as the average blood pressure measured at three different times: screening period, occupancy period, and 1 hour before administration, as shown in Tables 1 to 3.
Multiple dosing trials: Participants in each dose group fasted for at least 10 hours before administration, without water deprivation overnight. Each group of subjects received oral administration of the test drug on an empty stomach from day 1 to day 6, twice a day (with an interval of 12 hours and at least 1 hour on an empty stomach before the second administration), and only once in the morning on day 7. A total of 13 doses were administered. The first administration time every day is around 8 am, taken with 240 mL of water. Taking subject 14 as an example, the effect of multiple doses of MN-08 (7 days) on subject blood pressure was investigated.

[3] = test system: blood pressure of subjects; assay: Effect of multiple administration of MN-08 on blood pressure of subjects (3 days)
From the text: as §1
Multiple dosing trials: Participants in each dose group fasted for at least 10 hours before administration, without water deprivation overnight. Each group of subjects took the test drug orally on an empty stomach twice a day (with an interval of 12 hours and at least 1 hour on an empty stomach before the second administration). The first administration time every day is around 8 am, taken with 240 mL of water. Taking subjects 15-17 as an example, the effect of multiple doses of MN-08 (3 days) on subjects' blood pressure was investigated.

[4] = 12 mg twice a day, D 1, 2 hrs after 2nd adm.
[5] = 12 mg twice a day, D 1, 4 hrs after 1st adm.
[6] = 12 mg twice a day, D 1, 8 hrs after 1st adm.
[7] = 12 mg twice a day, D 2, 2 hrs after 2nd adm.
[8] = 12 mg twice a day, D 2, 4 hrs after 1st adm.
[9] = 12 mg twice a day, D 2, 8 hrs after 1st adm.
[10] = 12 mg twice a day, D 3, 2 hrs after 2nd adm.
[11] = 12 mg twice a day, D 3, 4 hrs after 1st adm.
[12] = 12 mg twice a day, D 3, 8 hrs after 1st adm.
[13] = 12 mg twice a day, D 4, 2 hrs after 2nd adm.
[14] = 12 mg twice a day, D 4, 4 hrs after 1st adm.
[15] = 12 mg twice a day, D 4, 8 hrs after 1st adm.
[16] = 12 mg twice a day, D 5, 2 hrs after 2nd adm.
[17] = 12 mg twice a day, D 5, 4 hrs after 1st adm.
[18] = 12 mg twice a day, D 5, 8 hrs after 1st adm.
[19] = 12 mg twice a day, D 6, 2 hrs after 2nd adm.
[20] = 12 mg twice a day, D 6, 4 hrs after 1st adm.
[21] = 12 mg twice a day, D 6, 8 hrs after 1st adm.
[22] = 12 mg, once on D 7 after 6 days twice a day, D 7, 4 hrs after adm.
[23] = 12 mg, once on D 7 after 6 days twice a day, D 7, 8 hrs after adm.
[24] = 12 mg, once on D 7 after 6 days twice a day, D 7, 12 hrs after adm.

CCC12CC3CC(N)(C1)CC(CO[N+](=O)[O-])(C3)C2 (stereo not drawn) [MN-08]
effect on diastolic pressure [1]: significant effect on reducing diastolic pressure
DP [2, 4]: 73 mmHg
SP [2, 4]: 113 mmHg
DP [2, 5]: 81 mmHg
SP [2, 5]: 122 mmHg
DP [2, 6]: 74 mmHg
SP [2, 6]: 114 mmHg
DP [2, 7]: 77 mmHg
SP [2, 7]: 107 mmHg
DP [2, 8]: 76 mmHg
SP [2, 8]: 115 mmHg
DP [2, 9]: 68 mmHg
SP [2, 9]: 117 mmHg
DP [2, 10]: 73 mmHg
SP [2, 10]: 109 mmHg
DP [2, 11]: 74 mmHg
SP [2, 11]: 114 mmHg
DP [2, 12]: 82 mmHg
SP [2, 12]: 111 mmHg
DP [2, 13]: 73 mmHg
SP [2, 13]: 109 mmHg
DP [2, 14]: 73 mmHg
SP [2, 14]: 109 mmHg
DP [2, 15]: 70 mmHg
SP [2, 15]: 107 mmHg
DP [2, 16]: 74 mmHg
SP [2, 16]: 114 mmHg
DP [2, 17]: 69 mmHg
SP [2, 17]: 106 mmHg
DP [2, 18]: 62 mmHg
SP [2, 18]: 97 mmHg
DP [2, 19]: 77 mmHg
SP [2, 19]: 125 mmHg
DP [2, 20]: 77 mmHg
SP [2, 20]: 118 mmHg
DP [2, 21]: 63 mmHg
SP [2, 21]: 112 mmHg
DP [2, 22]: 77 mmHg
SP [2, 22]: 108 mmHg
DP [2, 23]: 62 mmHg
SP [2, 23]: 102 mmHg
DP [2, 24]: 62 mmHg
SP [2, 24]: 103 mmHg
both systolic and diastolic pressure of the subjects ([2]; twice a day for 7 days, decrease in diastolic greater than in systolic pressure): reduced
DP ([3]; Subject 15, 12 mg twice a day, D 1, 2 hrs after 2nd adm., baseline 75 mmHg): 59 mmHg
SP ([3]; Subject 15, 12 mg twice a day, D 1, 2 hrs after 2nd adm., baseline 108 mmHg): 94 mmHg
DP ([3]; Subject 15, 12 mg twice a day, D 1, 4 hrs after 1st adm., baseline 75 mmHg): 61 mmHg
SP ([3]; Subject 15, 12 mg twice a day, D 1, 4 hrs after 1st adm., baseline 108 mmHg): 96 mmHg
DP ([3]; Subject 15, 12 mg twice a day, D 1, 8 hrs after 1st adm., baseline 75 mmHg): 51 mmHg
SP ([3]; Subject 15, 12 mg twice a day, D 1, 8 hrs after 1st adm., baseline 108 mmHg): 100 mmHg
DP ([3]; Subject 15, 12 mg twice a day, D 2, 2 hrs after 2nd adm., baseline 75 mmHg): 64 mmHg
SP ([3]; Subject 15, 12 mg twice a day, D 2, 2 hrs after 2nd adm., baseline 108 mmHg): 95 mmHg
DP ([3]; Subject 15, 12 mg twice a day, D 2, 4 hrs after 1st adm., baseline 75 mmHg): 56 mmHg
SP ([3]; Subject 15, 12 mg twice a day, D 2, 4 hrs after 1st adm., baseline 108 mmHg): 92 mmHg
DP ([3]; Subject 15, 12 mg twice a day, D 2, 8 hrs after 1st adm., baseline 75 mmHg): 57 mmHg
SP ([3]; Subject 15, 12 mg twice a day, D 2, 8 hrs after 1st adm., baseline 108 mmHg): 108 mmHg
DP ([3]; Subject 15, 12 mg twice a day, D 3, 2 hrs after 2nd adm., baseline 75 mmHg): 65 mmHg
SP ([3]; Subject 15, 12 mg twice a day, D 3, 2 hrs after 2nd adm., baseline 108 mmHg): 105 mmHg
DP ([3]; Subject 15, 12 mg twice a day, D 3, 4 hrs after 1st adm., baseline 75 mmHg): 64 mmHg
SP ([3]; Subject 15, 12 mg twice a day, D 3, 4 hrs after 1st adm., baseline 108 mmHg): 95 mmHg
DP ([3]; Subject 15, 12 mg twice a day, D 3, 8 hrs after 1st adm., baseline 75 mmHg): 57 mmHg
SP ([3]; Subject 15, 12 mg twice a day, D 3, 8 hrs after 1st adm., baseline 108 mmHg): 86 mmHg
DP ([3]; Subject 16, 24 mg twice a day, D 1, 2 hrs after 2nd adm., baseline 81 mmHg): 66 mmHg
SP ([3]; Subject 16, 24 mg twice a day, D 1, 2 hrs after 2nd adm., baseline 118 mmHg): 103 mmHg
DP ([3]; Subject 16, 24 mg twice a day, D 1, 4 hrs after 1st adm., baseline 81 mmHg): 61 mmHg
SP ([3]; Subject 16, 24 mg twice a day, D 1, 4 hrs after 1st adm., baseline 118 mmHg): 97 mmHg
DP ([3]; Subject 16, 24 mg twice a day, D 1, 8 hrs after 1st adm., baseline 81 mmHg): 63 mmHg
SP ([3]; Subject 16, 24 mg twice a day, D 1, 8 hrs after 1st adm., baseline 118 mmHg): 102 mmHg
DP ([3]; Subject 16, 24 mg twice a day, D 2, 2 hrs after 2nd adm., baseline 81 mmHg): 61 mmHg
SP ([3]; Subject 16, 24 mg twice a day, D 2, 2 hrs after 2nd adm., baseline 118 mmHg): 100 mmHg
DP ([3]; Subject 16, 24 mg twice a day, D 2, 4 hrs after 1st adm., baseline 81 mmHg): 69 mmHg
SP ([3]; Subject 16, 24 mg twice a day, D 2, 4 hrs after 1st adm., baseline 118 mmHg): 106 mmHg
DP ([3]; Subject 16, 24 mg twice a day, D 2, 8 hrs after 1st adm., baseline 81 mmHg): 65 mmHg
SP ([3]; Subject 16, 24 mg twice a day, D 2, 8 hrs after 1st adm., baseline 118 mmHg): 99 mmHg
DP ([3]; Subject 16, 24 mg twice a day, D 3, 2 hrs after 2nd adm., baseline 81 mmHg): 69 mmHg
SP ([3]; Subject 16, 24 mg twice a day, D 3, 2 hrs after 2nd adm., baseline 118 mmHg): 98 mmHg
DP ([3]; Subject 16, 24 mg twice a day, D 3, 4 hrs after 1st adm., baseline 81 mmHg): 67 mmHg
SP ([3]; Subject 16, 24 mg twice a day, D 3, 4 hrs after 1st adm., baseline 118 mmHg): 107 mmHg
DP ([3]; Subject 16, 24 mg twice a day, D 3, 8 hrs after 1st adm., baseline 81 mmHg): 63 mmHg
SP ([3]; Subject 16, 24 mg twice a day, D 3, 8 hrs after 1st adm., baseline 118 mmHg): 95 mmHg
DP ([3]; Subject 17, 24 mg twice a day, D 1, 2 hrs after 2nd adm., baseline 87 mmHg): 73 mmHg
SP ([3]; Subject 17, 24 mg twice a day, D 1, 2 hrs after 2nd adm., baseline 126 mmHg): 107 mmHg
DP ([3]; Subject 17, 24 mg twice a day, D 1, 4 hrs after 1st adm., baseline 87 mmHg): 81 mmHg
SP ([3]; Subject 17, 24 mg twice a day, D 1, 4 hrs after 1st adm., baseline 126 mmHg): 126 mmHg
DP ([3]; Subject 17, 24 mg twice a day, D 1, 8 hrs after 1st adm., baseline 87 mmHg): 66 mmHg
SP ([3]; Subject 17, 24 mg twice a day, D 1, 8 hrs after 1st adm., baseline 126 mmHg): 112 mmHg
DP ([3]; Subject 17, 24 mg twice a day, D 2, 2 hrs after 2nd adm., baseline 87 mmHg): 63 mmHg
SP ([3]; Subject 17, 24 mg twice a day, D 2, 2 hrs after 2nd adm., baseline 126 mmHg): 94 mmHg
DP ([3]; Subject 17, 24 mg twice a day, D 2, 4 hrs after 1st adm., baseline 87 mmHg): 73 mmHg
SP ([3]; Subject 17, 24 mg twice a day, D 2, 4 hrs after 1st adm., baseline 126 mmHg): 102 mmHg
DP ([3]; Subject 17, 24 mg twice a day, D 2, 8 hrs after 1st adm., baseline 87 mmHg): 68 mmHg
SP ([3]; Subject 17, 24 mg twice a day, D 2, 8 hrs after 1st adm., baseline 126 mmHg): 115 mmHg
DP ([3]; Subject 17, 24 mg twice a day, D 3, 2 hrs after 2nd adm., baseline 87 mmHg): 74 mmHg
SP ([3]; Subject 17, 24 mg twice a day, D 3, 2 hrs after 2nd adm., baseline 126 mmHg): 110 mmHg
DP ([3]; Subject 17, 24 mg twice a day, D 3, 4 hrs after 1st adm., baseline 87 mmHg): 70 mmHg
SP ([3]; Subject 17, 24 mg twice a day, D 3, 4 hrs after 1st adm., baseline 126 mmHg): 107 mmHg
DP ([3]; Subject 17, 24 mg twice a day, D 3, 8 hrs after 1st adm., baseline 87 mmHg): 76 mmHg
SP ([3]; Subject 17, 24 mg twice a day, D 3, 8 hrs after 1st adm., baseline 126 mmHg): 111 mmHg
effect on blood pressure of the subjects ([3]; continuous administration for 3 days, twice a day, 12 mg and 24 mg groups, decrease in diastolic greater than in systolic pressure): can lower the blood pressure
